According to patent US20100311714A1, “1H-IMIDAZO[4,5-c]QUINOLINONE COMPOUNDS” (priority 2009, published 2010):

Biological target: T1, PI3K gamma (Homo sapiens, UniProt P48736)
T1 construct: His tag (C); made in house; host or cells: construct from Roger Williams lab (pVL1393); baculovirus BV950; Tn5 (Trichoplusia ni) or TiniPro insect cells
Test: PI3K gamma kinase assay (Kinase-Glo luminescence)
Type: biochemical
Conditions: read-out: PI3Kgamma/IC50

T1 sequence (P48736 144-1102 limits assumed): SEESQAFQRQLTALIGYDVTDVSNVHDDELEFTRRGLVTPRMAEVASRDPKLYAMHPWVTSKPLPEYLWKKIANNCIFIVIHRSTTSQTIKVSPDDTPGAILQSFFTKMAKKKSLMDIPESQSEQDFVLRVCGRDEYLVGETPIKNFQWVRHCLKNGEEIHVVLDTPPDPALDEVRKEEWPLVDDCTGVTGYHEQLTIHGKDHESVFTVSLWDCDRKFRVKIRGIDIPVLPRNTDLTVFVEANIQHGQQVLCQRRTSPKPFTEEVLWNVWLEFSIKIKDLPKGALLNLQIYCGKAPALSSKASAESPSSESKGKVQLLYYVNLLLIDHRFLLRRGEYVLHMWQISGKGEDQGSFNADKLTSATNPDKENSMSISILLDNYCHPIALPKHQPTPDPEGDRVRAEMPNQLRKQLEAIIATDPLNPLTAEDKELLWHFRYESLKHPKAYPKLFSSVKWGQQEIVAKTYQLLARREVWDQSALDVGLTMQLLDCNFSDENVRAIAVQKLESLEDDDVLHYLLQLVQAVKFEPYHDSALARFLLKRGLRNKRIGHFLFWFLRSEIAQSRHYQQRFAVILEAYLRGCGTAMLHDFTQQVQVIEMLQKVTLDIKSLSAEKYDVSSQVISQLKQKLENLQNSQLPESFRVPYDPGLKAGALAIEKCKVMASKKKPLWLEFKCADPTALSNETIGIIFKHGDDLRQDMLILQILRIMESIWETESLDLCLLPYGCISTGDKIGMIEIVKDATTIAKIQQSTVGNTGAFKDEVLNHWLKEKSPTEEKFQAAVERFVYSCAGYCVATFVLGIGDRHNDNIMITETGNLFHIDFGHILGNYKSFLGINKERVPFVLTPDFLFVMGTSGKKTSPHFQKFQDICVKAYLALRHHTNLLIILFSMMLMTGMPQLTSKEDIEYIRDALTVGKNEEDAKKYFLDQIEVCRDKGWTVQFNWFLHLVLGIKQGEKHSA

Row | SMILES | IC50
1 | Cn1c(=O)n(-c2cccnc2F)c2c3cc(-c4cnc5[nH]ccc5c4)ccc3ncc21 [Example 6.3, 1-(2-Fluoro-pyridin-3-yl)-3-methyl-8-(1H-pyrrolo[2,3-b]pyridin-5-yl)-1,3-dihydro-imidazo[4,5-c]quinolin-2-one] | 0.464 µM
2 | Cc1ncccc1-n1c(=O)n(C)c2cnc3ccc(-c4cnc5[nH]ccc5c4)cc3c21 [Example 2.8, 3-Methyl-1-(2-methyl-pyridin-3-yl)-8-(1H-pyrrolo[2,3-b]pyridin-5-yl)-1,3-dihydro-imidazo[4,5-c]quinolin-2-one] | 0.361 µM
3 | CNC(=O)c1ccc(-c2ccc3ncc4c(c3c2)n(-c2cccnc2C)c(=O)n4C)cc1 [Example 2.4, N-Methyl-4-[3-methyl-1-(2-methyl-pyridin-3-yl)-2-oxo-2,3-dihydro-1H-imidazo[4,5-c]quinolin-8-yl]-benzamide] | 0.455 µM
